Results reported in US5079241A, “Cephalosporin derivatives and pharmaceutical compositions in which they are present” (Sanofi, priority 1987, dated 1992).
≈ marks a conversion by molar mass, not a printed value. Each block holds one molecule with its values, some of them ahead of it.

How the values were obtained:
[1] = pharmacokinetic behavior in baboons, 20 mg/kg (Tables 5 and 7); assay type: in vivo; conditions: for Plasma concentration at 24 h / Plasma concentration at 48 h / Cmax / half-life / AUC(0-inf) / dose excreted at 6 h: 20 mg/kg (Table 7); for Cmax / half-life / AUC(0-inf) / concentration at 0.08 h / concentration at 0.16 h / concentration at 0.25 h / concentration at 0.33 h / concentration at 0.5 h / concentration at 0.75 h / concentration at 1 h / concentration at 1.5 h / concentration at 2 h / concentration at 3 h / concentration at 4 h / concentration at 5 h / concentration at 6 h / concentration at 24 h / concentration at 48 h / dose excreted at 6 h: baboon; for Cmax / half-life / AUC(0-inf) / concentration at 0.08 h / concentration at 0.16 h / concentration at 0.25 h / concentration at 0.33 h / concentration at 0.5 h / concentration at 0.75 h / concentration at 1 h / concentration at 1.5 h / concentration at 2 h / concentration at 3 h / concentration at 4 h / concentration at 5 h / concentration at 6 h / concentration at 24 h / concentration at 48 h: plasma; for Cmax: read-out: Maximum plasma concentration; for half-life: read-out: t1/2 β (converted); for AUC(0-inf): trapezium method, read-out: AUC 0-.infin.; for concentration at 0.08 h / concentration at 0.16 h / concentration at 0.25 h / concentration at 0.33 h / concentration at 0.5 h / concentration at 0.75 h / concentration at 1 h / concentration at 1.5 h / concentration at 2 h / concentration at 3 h / concentration at 4 h / concentration at 5 h / concentration at 6 h / concentration at 24 h / concentration at 48 h: 20 mg/kg; for dose excreted at 6 h: urine, read-out: Excretion in urine at 6 h
Procedure: (§1) Furthermore, the pharmacokinetic behavior of the products according to the invention was studied in baboons after administration at a dose of 20 mg/kg by intramuscular injection or intravenous injection.
(§2) Blood samples taken at various times after administration are used to determine the plasma concentration of the product studied by microbiological assay.
(§3) It is thus possible to construct the curve showing the plasma concentration as a function of time, and to determine different pharmacokinetic parameters of the compound studied:
(§4) the elimination half-life (t1/2 β) is calculated by the formula [formula] in which β represents the elimination gradient or slope;
(§5) the area under the curve (AUC) is determined by the trapezium method.
(§6) The plasma concentrations obtained with various products of the invention are collated in Tables 4 and 5. They are expressed in μg/ml.

[2] = tested on: Staph. aureus Smith; test: bacteriostatic action in vitro by the dilution method (MIC); assay type: cell-based; conditions: Staphylococcus aureus, read-out: minimum inhibitory concentrations (MIC)
Procedure: (§7) The bacteriostatic action was determined in vitro by the dilution method. The study was carried out on both Gram-positive strains and Gram-negative strains.
(§8) The results for various products according to the invention, expressed as minimum inhibitory concentrations (MIC - μg/ml), are collated in Table 3.

[3] = tested on: Providencia 155; test: as above; assay type: cell-based; conditions: read-out: minimum inhibitory concentrations (MIC)
Procedure: as §7, §8

[4] = tested on: Proteus vulgaris GN 76/C-1; test: as above; assay type: cell-based; conditions: GN76, read-out: minimum inhibitory concentrations (MIC)
Procedure: as §7, §8

[5] = tested on: Klebsiella pneumoniae R30; test: as above; assay type: cell-based; conditions: read-out: minimum inhibitory concentrations (MIC)
Procedure: as §7, §8

[6] = tested on: Escherichia coli C1/Col E1::Tn3; test: as above; assay type: cell-based; conditions: read-out: minimum inhibitory concentrations (MIC)
Procedure: as §7, §8

[7] = tested on: Escherichia coli SOL RL 90; test: as above; assay type: cell-based; conditions: SOLRL90, read-out: minimum inhibitory concentrations (MIC)
Procedure: as §7, §8

[8] = tested on: Pseudomonas aeruginosa NCTC 8203; test: as above; assay type: cell-based; conditions: NCTC8203, read-out: minimum inhibitory concentrations (MIC)
Procedure: as §7, §8

[9] = protein binding by comparing two standard scales in baboon plasma and phosphate buffer; assay type: in vitro ADME; conditions: baboon plasma vs phosphate buffer (pH 7, 0.03M)
Text: Furthermore, the protein binding is obtained by comparing two standard scales, one being prepared in baboon plasma and the other in phosphate buffer (pH 7, 0.03M).

[10] = pharmacokinetic behavior in baboons, 20 mg/kg (Tables 4 and 6); assay type: in vivo; conditions: baboon; for Tmax / Cmax / half-life / AUC(0-t) at 6 h / concentration at 6 h / concentration at 10 min / concentration at 20 min / concentration at 0.5 h / concentration at 0.75 h / concentration at 1 h / concentration at 1.5 h / concentration at 2 h / concentration at 3 h / concentration at 4 h / concentration at 5 h / concentration at 5.5 h: plasma; for Cmax: read-out: Max plasma concentration; for half-life: read-out: t1/2 β; for AUC(0-t) at 6 h: trapezium method; for concentration at 6 h / concentration at 10 min / concentration at 20 min / concentration at 0.5 h / concentration at 0.75 h / concentration at 1 h / concentration at 1.5 h / concentration at 2 h / concentration at 3 h / concentration at 4 h / concentration at 5 h / concentration at 5.5 h / dose excreted at 6 h: 20 mg/kg; for concentration at 0.5 h: 30 minutes; for concentration at 0.75 h: 45 minutes; for concentration at 1 h: 60 minutes; for concentration at 1.5 h: 90 minutes; for concentration at 2 h: 120 minutes; for concentration at 3 h: 180 minutes; for concentration at 4 h: 240 minutes; for concentration at 5 h: 300 minutes; for concentration at 5.5 h: 330 minutes; for dose excreted at 6 h: urine, 6 h (Table 6), read-out: Excretion in the urine
Procedure: as §1, §2, §3, §4, §5, §6

[11] = 20 mg/kg (Table 6), read-out: Plasma concentration at 6 h
[12] = 360 minutes, read-out: plasma concentration

SMILES: CO/N=C(\C(=O)NC1C(=O)N2C(C(=O)O)=C(COC(=O)c3ccc(NS(=O)(=O)CCN)c(O)c3)CSC12)c1csc(N)n1 (stereo not drawn) [SR 44337, 7-[2-(2-Aminothiazol-4-yl)-2-methoxyiminoacetamido]-3-[[4-(2-aminoethylsulfonamido)-3-hydroxybenzoyl]oxymethyl]-3-cephem-4-carboxylic acid bis-trifluoroacetate, syn isomer]
increase in area under the curve relative to reference product C [1]: 2.7 fold
Plasma concentration at 24 h [1]: 39.0 µg/mL
Plasma concentration at 48 h [1]: 14.4 µg/mL
plasma concentration at 24 hours, times higher than reference product C ([1]; 24 hours): 5 times
plasma concentration at 48 hours, times higher than reference product C ([1]; 48 hours): 24 times
Cmax [1]: 266 µg/mL
half-life [1]: 13.9 h
AUC(0-inf) [1]: 3320 µg·h/mL
concentration at 0.08 h [1]: 266 µg/mL
concentration at 0.16 h [1]: 251 µg/mL
concentration at 0.25 h [1]: 238 µg/mL
concentration at 0.33 h [1]: 206 µg/mL
concentration at 0.5 h [1]: 194 µg/mL
concentration at 0.75 h [1]: 190 µg/mL
concentration at 1 h [1]: 182 µg/mL
concentration at 1.5 h [1]: 164 µg/mL
concentration at 2 h [1]: 153 µg/mL
concentration at 3 h [1]: 152 µg/mL
concentration at 4 h [1]: 147 µg/mL
concentration at 5 h [1]: 141 µg/mL
concentration at 6 h [1]: 120 µg/mL
concentration at 24 h ([1]; 24 hours): 39 µg/mL
concentration at 48 h ([1]; 48 hours): 14.4 µg/mL
dose excreted at 6 h [1]: 14%
MIC [2]: 0.25 µg/mL (≈ 0.381 µM)
MIC [3]: 1 µg/mL (≈ 1.53 µM)
MIC [4]: 1 µg/mL (≈ 1.53 µM)
MIC [5]: 4 µg/mL (≈ 6.1 µM)
MIC [6]: 0.06 µg/mL (≈ 0.0915 µM)
MIC [7]: 0.5 µg/mL (≈ 0.763 µM)
MIC [8]: 2 µg/mL (≈ 3.05 µM)

SMILES: CO/N=C(\C(=O)NC1C(=O)N2C(C(=O)O)=C(COC(=O)c3ccc(NC(=O)CN)c(O)c3)CSC12)c1csc(N)n1 (stereo not shown) [SR 43852]
MIC [2]: 0.25 µg/mL (≈ 0.413 µM)
MIC [3]: 2 µg/mL (≈ 3.3 µM)
MIC [4]: 16 µg/mL (≈ 26.4 µM)
MIC [5]: 4 µg/mL (≈ 6.6 µM)
MIC [6]: 0.06 µg/mL (≈ 0.0991 µM)
MIC [7]: 0.25 µg/mL (≈ 0.413 µM)
MIC [8]: 2 µg/mL (≈ 3.3 µM)

Now from value to molecule:

fraction unbound [9]: 0.55
Tmax ([10]; 20 mg/kg (Table 6)): 0.75 h
Cmax ([10]; 20 mg/kg (Table 6)): 69.5 µg/mL
half-life ([10]; 20 mg/kg (Table 6)): 3.25 h
AUC(0-t) at 6 h ([10]; 20 mg/kg (Table 6)): 284 µg·h/mL
concentration at 6 h [10, 11]: 17.3 µg/mL
concentration at 10 min [10]: 20.8 µg/mL
concentration at 20 min [10]: 36.8 µg/mL
concentration at 0.5 h [10]: 44.4 µg/mL
concentration at 0.75 h [10]: 59.3 µg/mL
concentration at 1 h [10]: 60 µg/mL
concentration at 1.5 h [10]: 55.5 µg/mL
concentration at 2 h [10]: 53.3 µg/mL
concentration at 3 h [10]: 40 µg/mL
concentration at 4 h [10]: 36.2 µg/mL
concentration at 5 h [10]: 27.2 µg/mL
concentration at 5.5 h [10]: 23.7 µg/mL
concentration at 6 h [10, 12]: 17.3 µg/mL
dose excreted at 6 h [10]: 23%
SMILES: CC(C)(ON=C(C(=O)NC1C(=O)N2C(C(=O)O)=C(COC(=O)c3ccc(NC(=O)CN)cc3)CSC12)c1csc(N)n1)C(=O)O (stereo not shown) [Product A, reference compound]

Plasma concentration at 24 h [1]: 7.7 µg/mL
Plasma concentration at 48 h [1]: 0.6 µg/mL
Cmax [1]: 233 µg/mL
half-life [1]: 6.3 h
AUC(0-inf) [1]: 1210 µg·h/mL
concentration at 0.08 h [1]: 233 µg/mL
concentration at 0.16 h [1]: 213 µg/mL
concentration at 0.25 h [1]: 190 µg/mL
concentration at 0.33 h [1]: 170 µg/mL
concentration at 0.5 h [1]: 124 µg/mL
concentration at 0.75 h [1]: 121 µg/mL
concentration at 1 h [1]: 120 µg/mL
concentration at 1.5 h [1]: 112 µg/mL
concentration at 2 h [1]: 98.4 µg/mL
concentration at 3 h [1]: 72.9 µg/mL
concentration at 4 h [1]: 68.7 µg/mL
concentration at 5 h [1]: 62.1 µg/mL
concentration at 6 h [1]: 54.4 µg/mL
concentration at 24 h ([1]; 24 hours): 7.7 µg/mL
concentration at 48 h ([1]; 48 hours): 0.6 µg/mL
dose excreted at 6 h [1]: 18%
SMILES: CC(C)(ON=C(C(=O)NC1C(=O)N2C(C(=O)O)=C(COC(=O)c3ccc(NS(=O)(=O)CCN)cc3)CSC12)c1csc(N)n1)C(=O)O (stereo not shown) [C, reference compound]

fraction unbound [9]: 0.52
Tmax ([10]; 20 mg/kg (Table 6)): 1.5 h
Cmax ([10]; 20 mg/kg (Table 6)): 24.1 µg/mL
half-life ([10]; 20 mg/kg (Table 6)): 1.65 h
AUC(0-t) at 6 h ([10]; 20 mg/kg (Table 6)): 87.9 µg·h/mL
concentration at 6 h [10, 11]: 4.8 µg/mL
concentration at 10 min [10]: 8.5 µg/mL
concentration at 20 min [10]: 16.4 µg/mL
concentration at 0.5 h [10]: 16.9 µg/mL
concentration at 0.75 h [10]: 17.6 µg/mL
concentration at 1 h [10]: 20.7 µg/mL
concentration at 1.5 h [10]: 24.1 µg/mL
concentration at 2 h [10]: 20.7 µg/mL
concentration at 3 h [10]: 17.6 µg/mL
concentration at 4 h [10]: 12.5 µg/mL
concentration at 5 h [10]: 8.3 µg/mL
concentration at 5.5 h [10]: 6.8 µg/mL
concentration at 6 h [10, 12]: 4.8 µg/mL
dose excreted at 6 h [10]: 18%
SMILES: CC(C)(ON=C(C(=O)NC1C(=O)N2C(C(=O)O)=C(COC(=O)c3ccc(NC(=O)CCN)cc3)CSC12)c1csc(N)n1)C(=O)O (stereo not shown) [Product B, reference compound]
